Patent publication US10072025B2, “Ethyl N-boc piperidinyl pyrazolo pyridones as Janus kinase inhibitors” (Merck Sharp & Dohme Corp., priority 2014, dated 2018)

Assays:
JAK1 = JAK1 (Homo sapiens (Human), UniProt P23458); experiment: Jak Biochemical HTRF Assay (JAK1); conditions: recombinant purified GST-tagged catalytic domain; HTRF; [ATP] 31.8 μM; [E] 1.405 nM
Procedure: (§1) Jak Biochemical HTRF Assay Protocol
(§2) The ability of compounds to inhibit the activity of JAK1, JAK2, JAK3, and Tyk2 was measured using a recombinant purified GST-tagged catalytic domain for each enzyme (Invitrogen JAK1 #M4290, JAK2 #M4290, JAK3 #M4290, Tyk2 #M4290) in an HTRF format biochemical assay. […] The basic assay protocol is as follows: First, 250 nL of diluted compounds in DMSO were dispensed into the wells of a dry 384-well Black plate (Greiner #781076) using a Labcyte Echo 555 acoustic dispenser. Subsequent reagent additions employed an Agilent Bravo. Next, 18 μL of 1.11× enzyme and 1.11× substrate in 1× assay buffer (Invitrogen kinase buffer # PV3189, 2 mM DTT, 0.05% BSA) were added to the wells and shaken and then preincubated for 30 minutes at room temperature to allow compound binding to equilibrate. After equilibration, 2 μL of 10×ATP in 1× assay buffer was added to initiate the kinase reaction and the plates were shaken and then incubated at room temperature for 120 minutes. At the end of the incubation, 20 μL of 2× stop buffer (streptavidin-Dylight 650 (Thermo #84547B/100 mL), Eu-tagged pY20 antibody (Perkin Elmer #AD0067), EDTA, HEPES, and Triton) was added to quench the reaction. Plates were shaken and centrifuged and then incubated 60 minutes at room temperature and then read on a Perkin Elmer Envision (Xex=337 nm, λem=665 and 615 nm, TRF delay time=20 μs). HTRF signal=10,000*665 nm reading/615 nm reading. After normalization to untreated controls, the percent inhibition of the HTRF signal at each compound concentration was calculated. The plot of percent inhibition versus the log of compound concentration was fit with a 4-parameter dose response equation to calculate IC50 values.

JAK2 = JAK2 (Homo sapiens (Human), UniProt O60674); experiment: Jak Biochemical HTRF Assay (JAK2); conditions: recombinant purified GST-tagged catalytic domain, [ATP] 8.5 μM, [E] 0.052 nM
Procedure: as §1, §2

JAK1, sequence (P23458 875-1153): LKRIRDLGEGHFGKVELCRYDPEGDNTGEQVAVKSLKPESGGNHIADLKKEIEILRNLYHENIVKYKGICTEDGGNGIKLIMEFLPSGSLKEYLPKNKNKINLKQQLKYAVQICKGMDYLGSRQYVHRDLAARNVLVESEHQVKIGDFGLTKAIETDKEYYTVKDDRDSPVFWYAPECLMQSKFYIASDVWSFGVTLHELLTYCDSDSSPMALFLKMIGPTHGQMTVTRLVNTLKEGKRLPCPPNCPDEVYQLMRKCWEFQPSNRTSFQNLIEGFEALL
JAK2, sequence (O60674 849-1124): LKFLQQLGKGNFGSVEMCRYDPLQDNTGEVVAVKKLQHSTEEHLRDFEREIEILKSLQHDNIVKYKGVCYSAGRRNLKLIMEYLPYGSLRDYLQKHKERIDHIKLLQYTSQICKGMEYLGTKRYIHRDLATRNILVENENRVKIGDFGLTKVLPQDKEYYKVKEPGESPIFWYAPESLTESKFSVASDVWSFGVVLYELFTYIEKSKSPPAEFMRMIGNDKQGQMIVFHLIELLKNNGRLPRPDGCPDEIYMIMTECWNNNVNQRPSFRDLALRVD

Row | IC50 (JAK1) | IC50 (JAK2) | SMILES
1 | 1.65 nM | 4.62 nM | CCC1(n2nc(Nc3ccc(C(C)(O)C(F)(F)F)cc3)c3c(=O)[nH]ccc32)CCN(C(=O)OC(C)(C)C)CC1 (stereo not shown) [Example 2-42, tert-butyl 4-ethyl-4-(4-oxo-3-((4-(1,1,1-trifluoro-2-hydroxypropan-2-yl)phenyl)amino)-4,5-dihydro-1H-pyrazolo[4,3-c]pyridin-1-yl) piperidine-1-carboxylate]
2 | 0.79 nM | 1.05 nM | CCC1(n2nc(Nc3ccc(C(=O)N4CCCSCC4)c(C)c3)c3c(=O)[nH]ccc32)CCN(C(=O)OC(C)(C)C)CC1 [Example 3-9, tert-butyl 4-ethyl-4-(3-{[3-methyl-4-(1,4-thiazepan-4-ylcarbonyl)phenyl]amino}-4-oxo-4,5-dihydro-1H-pyrazolo[4,3-c]pyridin-1-yl) piperidine-1-carboxylate]
3 | 0.54 nM | 0.51 nM | CCC1(n2nc(Nc3ccc(C(=O)N4CCOC[C@H]4C)c(C)c3)c3c(=O)[nH]ccc32)CCN(C(=O)OC(C)(C)C)CC1 [Example 2-28, (R)-tert-butyl-4-ethyl-4-(3-(3-methyl-4-(3-methylmorpholine-4-carbonyl)phenylamino)-4-oxo-4,5-dihydropyrazolo[4,3-c]pyridin-1-yl) piperidine-1-carboxylate]
4 | 0.37 nM | 0.56 nM | CCC1(n2nc(Nc3ccc(C4CCN(C)CC4)cc3)c3c(=O)[nH]ccc32)CCN(C(=O)OC(C)(C)C)CC1 [Example 2-4, tert-butyl 4-ethyl-4-(3-(4-(1-methylpiperidin-4-yl)phenylamino)-4-oxo-4,5-dihydropyrazolo[4,3-c]pyridin-1-yl) piperidine-1-carboxylate]
5 | 0.62 nM | 0.57 nM | CCC1(n2nc(Nc3ccc(C(=O)N4CCO[C@@H](C)C4)c(C)c3)c3c(=O)[nH]ccc32)CCN(C(=O)OC(C)(C)C)CC1 [Example 2-8, (5)-tert-butyl-4-ethyl-4-(3-(3-methyl-4-(2-methylmorpholine-4-carbonyl)phenylamino)-4-oxo-4,5-dihydropyrazolo[4,3-c]pyridin-1-yl) piperidine-1-carboxylate]
6 | 1.73 nM | 2.8 nM | CCC1(n2nc(Nc3ccc(C(=O)N4CCSCC4)c(C(F)F)c3)c3c(=O)[nH]ccc32)CCN(C(=O)OC(C)(C)C)CC1 [Example 2-25, tert-butyl 4-(3-(3-(difluoromethyl)-4-(thiomorpholine-4-carbonyl)phenylamino)-4-oxo-4,5-dihydropyrazolo[4,3-c]pyridin-1-yl)-4-ethylpiperidine-1-carboxylate]
7 | 2.82 nM | 3.55 nM | CCC1(n2nc(Nc3ccc([C@]4(C(F)(F)F)CCCN4)cc3)c3c(=O)[nH]ccc32)CCN(C(=O)OC(C)(C)C)CC1 (single isomer, unassigned) [Example 2-35, (S or R)-tert-butyl 4-ethyl-4-(4-oxo-3-(4-(2-(trifluoromethyl)pyrrolidin-2-yl)phenylamino)-4,5-dihydropyrazolo[4,3-c]pyridin-1-yl) piperidine-1-carboxylate]
8 | 0.52 nM | 0.63 nM | CCC1(n2nc(Nc3ccc(C(=O)N4C[C@H](C)O[C@@H](C)C4)c(C)c3)c3c(=O)[nH]ccc32)CCN(C(=O)OC(C)(C)C)CC1 [Example 3-7, tert-butyl 4-{3-[(4-{[(2S,6S)-2,6-dimethylmorpholin-4-yl]carbonyl}-3-methylphenyl)amino]-4-oxo-4,5-dihydro-1H-pyrazolo[4,3-c]pyridin-1-yl}-4-ethylpiperidine-1-carboxylate]
9 | 0.99 nM | 0.53 nM | CCC1(n2nc(Nc3ccc(C(=O)N4CCOCC(C)C4)c(C)c3)c3c(=O)[nH]ccc32)CCN(C(=O)OC(C)(C)C)CC1 (single isomer, unassigned) [Example 3-20, tert-butyl 4-ethyl-4-[3-({3-methyl-4-[(6R or 6S-methyl-1,4-oxazepan-4-yl)carbonyl]phenyl}amino)-4-oxo-4,5-dihydro-1H-pyrazolo[4,3-c]pyridin-1-yl] piperidine-1-carboxylate]
10 | 0.9 nM | 2.91 nM | CCC1(n2nc(Nc3ccc(C(O)C(F)(F)F)cc3)c3c(=O)[nH]ccc32)CCN(C(=O)OC(C)(C)C)CC1 (stereo not shown) [Example 2-43, tert-butyl 4-ethyl-4-(4-oxo-3-((4-(2,2,2-trifluoro-1-hydroxyethyl)phenyl)amino)-4,5-dihydro-1H-pyrazolo[4,3-c]pyridin-1-yl) piperidine-1-carboxylate]
11 | 0.53 nM | 3.37 nM | CCC1(n2nc(Nc3cccc(CC#N)c3)c3c(=O)[nH]ccc32)CCN(C(=O)OC(C)(C)C)CC1 [Example 2-17, tert-butyl 4-(3-((3-(cyanomethyl)phenyl)amino)-4-oxo-4,5-dihydro-1H-pyrazolo [4,3-c]pyridin-1-yl)-4-ethylpiperidine-1-carboxylate]
12 | 0.72 nM | 0.6 nM | CCC1(n2nc(Nc3ccc(C(=O)N4CCO[C@H](C)C4)c(C)c3)c3c(=O)[nH]ccc32)CCN(C(=O)OC(C)(C)C)CC1 [Example 2-7, (R)-tert-butyl-4-ethyl-4-(3-(3-methyl-4-(2-methylmorpholine-4-carbonyl)phenylamino)-4-oxo-4,5-dihydropyrazolo[4,3-c]pyridin-1-yl) piperidine-1-carboxylate]
13 | 2.86 nM | 3.4 nM | CCC1(n2nc(Nc3ccc4c(c3)CN(C(C)(C)C)S4(=O)=O)c3c(=O)[nH]ccc32)CCN(C(=O)OC(C)(C)C)CC1 [Example 1-2]
14 | 0.25 nM | 0.8 nM | CCC1(n2nc(Nc3ccc(C(=O)N4CCOC(=O)C4)c(C)c3)c3c(=O)[nH]ccc32)CCN(C(=O)OC(C)(C)C)CC1 [Example 3-1, tert-butyl-4-ethyl-4-(3-((3-methyl-4-(2-oxomorpholine-4-carbonyl)phenyl)amino)-4-oxo-4,5-dihydro-1H-pyrazolo[4,3-c]pyridin-1-yl)piperidine-1-carboxylate]
15 | 0.36 nM | 0.44 nM | CCC1(n2nc(Nc3ccc(C(=O)N4C[C@@H]5C[C@H]4CO5)c(C)c3)c3c(=O)[nH]ccc32)CCN(C(=O)OC(C)(C)C)CC1 [Example 2-22, tert-butyl 4-(3-(4-((1S,4S)-5-oxa-2-aza-bicyclo[2.2.1]heptane-2-carbonyl)-3-methylphenylamino)-4-oxo-4,5-dihydropyrazolo[4,3-c]pyridin-1-yl)-4-ethylpiperidine-1-carboxylate]
16 | 0.29 nM | 0.43 nM | CCC1(n2nc(Nc3ccc(C(=O)N4CCCOCC4)c(C)c3)c3c(=O)[nH]ccc32)CCN(C(=O)OC(C)(C)C)CC1 [Example 3-10, tert-butyl 4-ethyl-4-(3-{[3-methyl-4-(1,4-oxazepan-4-ylcarbonyl)phenyl]amino}-4-oxo-4,5-dihydro-1H-pyrazolo[4,3-c]pyridin-1-yl) piperidine-1-carboxylate]
17 | 1.23 nM | 0.89 nM | CCC1(n2nc(Nc3ccc(C(=O)N4CCOCC(C)C4)c(C)c3)c3c(=O)[nH]ccc32)CCN(C(=O)OC(C)(C)C)CC1 (single isomer, unassigned) [Example 3-19, tert-butyl 4-ethyl-4-[3-({3-methyl-4-[(6R or 6S-methyl-1,4-oxazepan-4-yl)carbonyl]phenyl}amino)-4-oxo-4,5-dihydro-1H-pyrazolo [4,3-c]pyridin-1-yl] piperidine-1-carboxylate]
18 | 0.61 nM | 0.75 nM | CCC1(n2nc(Nc3ccc(C(=O)N4CCOC(C)(C)C4)c(C)c3)c3c(=O)[nH]ccc32)CCN(C(=O)OC(C)(C)C)CC1 [Example 3-2, tert-butyl 4-[3-({4-[(2,2-dimethylmorpholin-4-yl)carbonyl]-3-methylphenyl}amino)-4-oxo-4,5-dihydro-1H-pyrazolo[4,3-c]pyridin-1-yl]-4-ethylpiperidine-1-carboxylate]
19 | 0.99 nM | 1.53 nM | CCC1(n2nc(Nc3ccc(C(=O)N4CCOC5(CCCC5)C4)c(C)c3)c3c(=O)[nH]ccc32)CCN(C(=O)OC(C)(C)C)CC1 [Example 3-3, tert-butyl 4-ethyl-4-(3-{[3-methyl-4-(6-oxa-9-azaspiro[4.5]dec-9-ylcarbonyl)phenyl]amino}-4-oxo-4,5-dihydro-1H-pyrazolo[4,3-c]pyridin-1-yl) piperidine-1-carboxylate]
20 | 1.69 nM | 1.34 nM | CCC1(n2nc(Nc3ccc(C(=O)N4CCOC5CC54)c(C)c3)c3c(=O)[nH]ccc32)CCN(C(=O)OC(C)(C)C)CC1 (stereo not shown) [Example 3-21, tert-butyl 4-ethyl-4-(3-{[3-methyl-4-(2-oxa-5-azabicyclo [4.1.0]hept-5-ylcarbonyl)phenyl]amino}-4-oxo-4,5-dihydro-1H-pyrazolo [4,3-c]pyridin-1-yl) piperidine-1-carboxylate]
